Results as given in ChEMBL document CHEMBL3804771, “De novo design of helical peptides to inhibit tumor necrosis factor- by disrupting its trimer formation” (Medchemcomm, 2016).
The source made the active and inactive calls. The rule behind the calls is not given here.

What was measured:
[1] = Cytotoxicity against HEK293T cells assessed as cell death at 30 uM after 24 hrs by CCK8 assay; assay type: cell-based; conditions: human, hek-293t
[2] = Cytotoxicity against HEK293T cells at >300 uM after 24 hrs by CCK8 assay; assay type: cell-based; conditions: human, hek-293t
Tumor necrosis factor [3] = target: T1, Tumor necrosis factor (Homo sapiens, UniProt P01375); experiment: Inhibition of human TNFalpha induced NFkappaB activation in HEK293T cells after 6 hrs by dual-glo luciferase assay; assay type: cell-based, HEK-293T; conditions: for inhibition: HEK-293T
T1 sequence (P01375 whole entry): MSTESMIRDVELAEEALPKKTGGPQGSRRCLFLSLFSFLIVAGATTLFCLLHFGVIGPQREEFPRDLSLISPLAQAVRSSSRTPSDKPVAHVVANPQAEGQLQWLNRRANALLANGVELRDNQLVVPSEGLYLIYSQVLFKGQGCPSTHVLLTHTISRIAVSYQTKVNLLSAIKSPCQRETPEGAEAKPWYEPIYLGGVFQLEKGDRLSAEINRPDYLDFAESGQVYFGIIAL

Tumor necrosis factor [4] = target: T1, Tumor necrosis factor; experiment: Binding affinity to human TNFalpha expressed in Escherichia coli by surface plasmon resonance method
Tumor necrosis factor [5] = target: T1, Tumor necrosis factor; experiment: Inhibition of human TNFalpha expressed in Escherichia coli assessed as increase in TNFalpha monomer level after 15 mins by SDS-PAGE analysis
Tumor necrosis factor [6] = target: T1, Tumor necrosis factor; experiment: Inhibition of human TNFalpha expressed in Escherichia coli assessed as increase in TNF-alpha dimer level after 15 mins by SDS-PAGE analysis
Tumor necrosis factor [7] = target: T1, Tumor necrosis factor; experiment: Inhibition of human TNFalpha expressed in Escherichia coli assessed as trimer to dimer transition at 5 uM measured after 12 hrs by mass spectrometry
Tumor necrosis factor [8] = target: T1, Tumor necrosis factor; experiment: Inhibition of human TNFalpha expressed in Escherichia coli assessed as decrease in TNF-alpha trimer level after 15 mins by SDS-PAGE analysis

Cc1cc2occ(CN(C)CCN(C)Cc3cn(-c4cccc(C(F)(F)F)c4)c4ccccc34)c(=O)c2cc1C
mortality [1]: 50%

CC[C@H](C)[C@H](NC(=O)[C@H](CCC(N)=O)NC(=O)[C@H](CCC(N)=O)NC(=O)[C@H](Cc1ccccc1)NC(=O)[C@H](CCC(=O)O)NC(=O)[C@H](CCC(N)=O)NC(=O)[C@@H](NC(=O)[C@H](CCC(=O)O)NC(=O)[C@H](CCC(N)=O)NC(=O)[C@H](Cc1c[nH]c2ccccc12)NC(=O)[C@H](CC(N)=O)NC(=O)[C@H](CCCNC(=N)N)NC(=O)[C@H](CCCCN)NC(=O)[C@H](CC(C)C)NC(=O)[C@H](CCC(=O)O)NC(=O)[C@H](CC(=O)O)NC(=O)[C@H](CCC(=O)O)NC(=O)[C@H](C)NC(=O)[C@@H](N)CC(=O)O)[C@@H](C)CC)C(=O)N[C@@H](CC(C)C)C(=O)N[C@@H](CCC(N)=O)C(=O)N[C@@H](CCSC)C(=O)N[C@@H](Cc1ccccc1)C(=O)N[C@@H](Cc1ccccc1)C(=O)N[C@@H](CCC(=O)O)C(=O)N[C@@H](Cc1c[nH]c2ccccc12)C(=O)N[C@@H](Cc1c[nH]c2ccccc12)C(=O)N[C@@H](CCC(N)=O)C(=O)N[C@@H](CCCCN)C(=O)N[C@@H](CC(=O)O)C(=O)O
Activity [2]: Non-toxic
IC50 (Tumor necrosis factor [3]): 11900 nM
Kd (Tumor necrosis factor [4]): 390 nM

CC[C@@H](C)[C@@H](NC(=O)[C@@H](CCC(N)=O)NC(=O)[C@@H](CCC(N)=O)NC(=O)[C@@H](Cc1ccccc1)NC(=O)[C@@H](CCC(=O)O)NC(=O)[C@@H](CCC(N)=O)NC(=O)[C@H](NC(=O)[C@@H](CCC(=O)O)NC(=O)[C@@H](CCC(N)=O)NC(=O)[C@H](Cc1c[nH]c2ccccc12)NC(=O)[C@H](CC(N)=O)NC(=O)[C@H](CCCNC(=N)N)NC(=O)[C@H](CCCCN)NC(=O)[C@H](CC(C)C)NC(=O)[C@H](CCC(=O)O)NC(=O)[C@H](CC(=O)O)NC(=O)[C@H](CCC(=O)O)NC(=O)[C@H](C)NC(=O)[C@H](N)CC(=O)O)[C@@H](C)CC)C(=O)N[C@H](CC(C)C)C(=O)N[C@H](CCC(N)=O)C(=O)N[C@H](CCSC)C(=O)N[C@H](Cc1ccccc1)C(=O)N[C@H](Cc1ccccc1)C(=O)N[C@H](CCC(=O)O)C(=O)N[C@H](Cc1c[nH]c2ccccc12)C(=O)N[C@@H](Cc1c[nH]c2ccccc12)C(=O)N[C@@H](CCC(N)=O)C(=O)N[C@H](CCCCN)C(=O)N[C@@H](CC(=O)O)C(=O)O
inhibition (Tumor necrosis factor [5]): Active
inhibition (Tumor necrosis factor [6]): Active
inhibition (Tumor necrosis factor [3]): Dose-dependent effect
inhibition (Tumor necrosis factor [7]): Active
inhibition (Tumor necrosis factor [8]): Active

CC[C@@H](C)[C@H](NC(=O)[C@H](CCC(=O)O)NC(=O)[C@H](CCC(N)=O)NC(=O)[C@@H](Cc1c[nH]c2ccccc12)NC(=O)[C@@H](CC(N)=O)NC(=O)[C@@H](CCCNC(=N)N)NC(=O)[C@@H](CCCCN)NC(=O)[C@@H](CC(C)C)NC(=O)[C@@H](CCC(=O)O)NC(=O)[C@@H](CC(=O)O)NC(=O)[C@@H](CCC(=O)O)NC(=O)[C@@H](C)NC(=O)[C@@H](N)CC(=O)O)C(=O)N[C@@H](CCC(N)=O)C(=O)N[C@@H](CCC(=O)O)C(=O)N[C@@H](C)C(=O)N[C@@H](CCC(N)=O)C(=O)N[C@@H](CCC(N)=O)C(=O)N[C@H](C(=O)N[C@@H](CC(C)C)C(=O)N[C@@H](CCC(N)=O)C(=O)N[C@@H](CCSC)C(=O)N[C@@H](Cc1ccccc1)C(=O)N[C@@H](Cc1ccccc1)C(=O)N[C@@H](CCC(=O)O)C(=O)N[C@@H](Cc1c[nH]c2ccccc12)C(=O)N[C@H](Cc1c[nH]c2ccccc12)C(=O)N[C@H](CCC(N)=O)C(=O)N[C@@H](CCCCN)C(=O)N[C@H](CC(=O)O)C(=O)O)[C@@H](C)CC
inhibition (Tumor necrosis factor [3]): inactive

CC[C@@H](C)[C@H](NC(=O)[C@H](CCC(N)=O)NC(=O)[C@H](CCC(N)=O)NC(=O)[C@H](Cc1ccccc1)NC(=O)[C@H](CCC(=O)O)NC(=O)[C@H](CCC(N)=O)NC(=O)[C@@H](NC(=O)[C@H](CCC(=O)O)NC(=O)[C@H](CCC(N)=O)NC(=O)[C@@H](Cc1c[nH]c2ccccc12)NC(=O)[C@H](CC(N)=O)NC(=O)[C@H](CCCNC(=N)N)NC(=O)[C@H](CCCCN)NC(=O)[C@H](CC(C)C)NC(=O)[C@H](CCC(=O)O)NC(=O)[C@H](CC(=O)O)NC(=O)[C@H](CCC(=O)O)NC(=O)[C@H](C)NC(=O)[C@H](N)CC(=O)O)[C@@H](C)CC)C(=O)N[C@@H](C)C(=O)N[C@@H](CCC(N)=O)C(=O)N[C@@H](CCSC)C(=O)N[C@@H](Cc1ccccc1)C(=O)N[C@@H](Cc1ccccc1)C(=O)N[C@@H](CCC(=O)O)C(=O)N[C@@H](Cc1c[nH]c2ccccc12)C(=O)N[C@@H](Cc1c[nH]c2ccccc12)C(=O)N[C@@H](CCC(N)=O)C(=O)N[C@H](CCCCN)C(=O)N[C@@H](CC(=O)O)C(=O)O
inhibition (Tumor necrosis factor [3]): inactive

H-DAEDELKRNWQAIQEFQQILQMFFEWWQKD-OH
inhibition (Tumor necrosis factor [3]): inactive

H-LREQRLKEHLQEIQIFEQWLQIFQEQFQKF-OH
Activity [2]: Non-toxic
inhibition (Tumor necrosis factor [3]): inactive
Kd (Tumor necrosis factor [4]): 500 nM

H-QEKWFAEQYARMVLEWIEKELKESL-OH
inhibition (Tumor necrosis factor [5]): Active
inhibition (Tumor necrosis factor [6]): Active
Activity [2]: Non-toxic
IC50 (Tumor necrosis factor [3]): 20700 nM
inhibition (Tumor necrosis factor [3]): Dose-dependent effect
inhibition (Tumor necrosis factor [7]): Active
inhibition (Tumor necrosis factor [8]): Active
Kd (Tumor necrosis factor [4]): 500 nM

H-RQQEELYKKWLQEFWKWFQIALQLD-OH
inhibition (Tumor necrosis factor [5]): Active
inhibition (Tumor necrosis factor [6]): Active
Activity [2]: Non-toxic
IC50 (Tumor necrosis factor [3]): 32600 nM
inhibition (Tumor necrosis factor [3]): Dose-dependent effect
inhibition (Tumor necrosis factor [7]): Active
inhibition (Tumor necrosis factor [8]): Active
Kd (Tumor necrosis factor [4]): 500 nM

H-SEQELKQIFQQVFQWWQLWEQFEKQ-OH
inhibition (Tumor necrosis factor [5]): Active
inhibition (Tumor necrosis factor [6]): Active
inhibition (Tumor necrosis factor [7]): Active
inhibition (Tumor necrosis factor [8]): Active
